Laboratory results: ChEMBL document CHEMBL5291721, “A preclinical secondary pharmacology resource illuminates target-adverse drug reaction associations of marketed drugs” (Nat Commun, 2023)

What was measured:
[1] = molecular target: T1, Muscarinic acetylcholine receptor M2 (Homo sapiens, UniProt P08172)
T1 sequence (P08172 whole entry): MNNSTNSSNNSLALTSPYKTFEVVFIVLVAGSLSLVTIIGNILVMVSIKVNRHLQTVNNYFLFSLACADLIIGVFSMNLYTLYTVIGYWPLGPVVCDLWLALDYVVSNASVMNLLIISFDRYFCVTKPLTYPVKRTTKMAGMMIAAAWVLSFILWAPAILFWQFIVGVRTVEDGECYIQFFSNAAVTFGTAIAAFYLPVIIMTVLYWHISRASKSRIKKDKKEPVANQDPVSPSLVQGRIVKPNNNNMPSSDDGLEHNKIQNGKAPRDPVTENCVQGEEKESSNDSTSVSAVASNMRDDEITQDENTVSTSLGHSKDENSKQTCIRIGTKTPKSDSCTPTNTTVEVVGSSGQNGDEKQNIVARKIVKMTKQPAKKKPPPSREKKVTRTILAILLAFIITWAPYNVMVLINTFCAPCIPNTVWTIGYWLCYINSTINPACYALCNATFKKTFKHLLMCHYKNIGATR

[2] = molecular target: T2, Alpha-1A adrenergic receptor (Homo sapiens, UniProt P35348); format: functional, cell-based
T2 sequence (P35348 whole entry): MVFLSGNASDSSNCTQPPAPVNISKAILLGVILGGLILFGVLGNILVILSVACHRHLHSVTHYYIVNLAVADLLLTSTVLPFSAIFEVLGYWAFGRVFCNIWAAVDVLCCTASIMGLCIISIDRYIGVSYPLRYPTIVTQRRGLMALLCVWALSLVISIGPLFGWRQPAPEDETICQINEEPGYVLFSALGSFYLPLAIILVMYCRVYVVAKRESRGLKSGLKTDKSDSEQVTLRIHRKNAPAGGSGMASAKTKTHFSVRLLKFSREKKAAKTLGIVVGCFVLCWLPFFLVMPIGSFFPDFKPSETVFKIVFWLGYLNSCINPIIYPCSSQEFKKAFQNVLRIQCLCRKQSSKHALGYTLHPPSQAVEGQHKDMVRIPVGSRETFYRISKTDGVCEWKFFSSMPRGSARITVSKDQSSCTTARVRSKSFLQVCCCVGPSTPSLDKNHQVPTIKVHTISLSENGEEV

[3] = molecular target: 5-hydroxytryptamine receptor 2B (Homo sapiens, UniProt P41595); format: functional, cell-based
Sequence of 5-hydroxytryptamine receptor 2B (P41595 whole entry): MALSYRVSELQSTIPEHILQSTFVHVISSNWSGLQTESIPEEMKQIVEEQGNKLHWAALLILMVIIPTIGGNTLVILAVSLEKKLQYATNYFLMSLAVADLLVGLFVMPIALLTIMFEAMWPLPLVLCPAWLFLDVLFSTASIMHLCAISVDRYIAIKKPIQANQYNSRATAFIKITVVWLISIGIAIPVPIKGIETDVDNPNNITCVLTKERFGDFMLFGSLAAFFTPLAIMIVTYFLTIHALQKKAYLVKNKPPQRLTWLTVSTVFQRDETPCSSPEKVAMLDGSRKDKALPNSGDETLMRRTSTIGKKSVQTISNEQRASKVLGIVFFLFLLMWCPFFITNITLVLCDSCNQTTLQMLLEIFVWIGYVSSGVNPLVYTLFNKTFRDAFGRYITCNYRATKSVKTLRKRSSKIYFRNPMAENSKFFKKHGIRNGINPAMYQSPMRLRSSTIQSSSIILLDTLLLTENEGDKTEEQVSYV

Thromboxane A2 receptor = molecular target: T3, Thromboxane A2 receptor (Homo sapiens, UniProt P21731); format: functional, cell-based
T3 sequence (P21731 whole entry): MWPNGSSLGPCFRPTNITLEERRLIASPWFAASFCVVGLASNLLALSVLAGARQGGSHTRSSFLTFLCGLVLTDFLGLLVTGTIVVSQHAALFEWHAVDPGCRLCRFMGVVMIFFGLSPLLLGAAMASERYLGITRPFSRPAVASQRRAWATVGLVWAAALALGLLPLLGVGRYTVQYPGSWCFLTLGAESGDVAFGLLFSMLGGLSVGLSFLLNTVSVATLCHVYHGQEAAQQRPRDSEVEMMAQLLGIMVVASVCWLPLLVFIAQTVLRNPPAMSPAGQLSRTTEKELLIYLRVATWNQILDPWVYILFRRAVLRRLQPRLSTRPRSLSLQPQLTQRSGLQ

[4] = molecular target: T2, Alpha-1A adrenergic receptor; format: functional, cell-based; remark: listed apart in the source
Mu-type opioid receptor = Mu-type opioid receptor (Homo sapiens, UniProt P35372)
Sequence of Mu-type opioid receptor (P35372 whole entry): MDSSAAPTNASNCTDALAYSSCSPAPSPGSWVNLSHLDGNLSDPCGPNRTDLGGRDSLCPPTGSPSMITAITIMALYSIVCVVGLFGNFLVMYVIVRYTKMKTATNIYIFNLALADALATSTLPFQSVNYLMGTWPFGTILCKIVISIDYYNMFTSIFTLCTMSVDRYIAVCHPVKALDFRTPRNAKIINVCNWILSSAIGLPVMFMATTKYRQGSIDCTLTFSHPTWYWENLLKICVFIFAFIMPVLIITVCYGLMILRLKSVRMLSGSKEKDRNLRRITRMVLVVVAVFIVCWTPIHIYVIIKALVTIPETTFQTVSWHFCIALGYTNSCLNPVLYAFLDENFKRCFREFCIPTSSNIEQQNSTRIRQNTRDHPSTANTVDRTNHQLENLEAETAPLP

[5] = molecular target: Vascular endothelial growth factor receptor 2 (Homo sapiens, UniProt P35968); format: functional
Sequence of Vascular endothelial growth factor receptor 2 (P35968 whole entry): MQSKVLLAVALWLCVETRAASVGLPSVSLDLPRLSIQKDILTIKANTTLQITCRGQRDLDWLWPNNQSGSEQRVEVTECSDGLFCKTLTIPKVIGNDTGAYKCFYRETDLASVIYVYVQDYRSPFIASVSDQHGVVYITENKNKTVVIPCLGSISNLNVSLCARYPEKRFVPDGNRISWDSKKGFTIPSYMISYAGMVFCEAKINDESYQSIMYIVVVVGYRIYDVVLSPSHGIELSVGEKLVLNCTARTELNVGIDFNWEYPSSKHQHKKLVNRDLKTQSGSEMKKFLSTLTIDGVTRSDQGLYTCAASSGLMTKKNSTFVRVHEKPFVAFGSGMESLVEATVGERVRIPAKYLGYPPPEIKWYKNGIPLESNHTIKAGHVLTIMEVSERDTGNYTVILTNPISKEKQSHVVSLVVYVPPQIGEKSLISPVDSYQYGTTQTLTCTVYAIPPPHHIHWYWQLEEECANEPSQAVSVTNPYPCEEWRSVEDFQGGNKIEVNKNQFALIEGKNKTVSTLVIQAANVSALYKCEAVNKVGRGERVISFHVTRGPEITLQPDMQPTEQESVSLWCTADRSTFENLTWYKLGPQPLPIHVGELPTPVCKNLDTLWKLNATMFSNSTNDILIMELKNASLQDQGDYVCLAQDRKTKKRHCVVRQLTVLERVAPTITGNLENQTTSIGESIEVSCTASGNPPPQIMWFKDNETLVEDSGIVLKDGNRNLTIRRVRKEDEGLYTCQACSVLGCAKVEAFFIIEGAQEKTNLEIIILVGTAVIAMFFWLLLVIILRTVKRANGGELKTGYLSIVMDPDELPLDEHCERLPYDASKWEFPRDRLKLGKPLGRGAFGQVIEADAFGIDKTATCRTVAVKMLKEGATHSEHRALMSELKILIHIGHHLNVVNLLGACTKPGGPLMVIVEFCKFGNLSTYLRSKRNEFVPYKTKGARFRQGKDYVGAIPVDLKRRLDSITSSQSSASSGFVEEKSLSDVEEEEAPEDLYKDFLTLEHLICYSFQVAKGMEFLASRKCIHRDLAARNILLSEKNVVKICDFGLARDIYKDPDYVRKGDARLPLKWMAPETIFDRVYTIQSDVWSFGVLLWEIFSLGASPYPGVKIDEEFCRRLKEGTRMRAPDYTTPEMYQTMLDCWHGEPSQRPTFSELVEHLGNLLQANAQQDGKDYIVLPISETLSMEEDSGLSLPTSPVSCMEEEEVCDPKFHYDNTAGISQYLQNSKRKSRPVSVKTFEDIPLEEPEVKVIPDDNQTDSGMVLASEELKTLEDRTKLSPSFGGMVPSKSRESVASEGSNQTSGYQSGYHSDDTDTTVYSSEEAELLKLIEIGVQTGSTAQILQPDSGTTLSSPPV

Estrogen receptor = molecular target: T4, Estrogen receptor (Homo sapiens, UniProt P03372)
T4 sequence (P03372 whole entry): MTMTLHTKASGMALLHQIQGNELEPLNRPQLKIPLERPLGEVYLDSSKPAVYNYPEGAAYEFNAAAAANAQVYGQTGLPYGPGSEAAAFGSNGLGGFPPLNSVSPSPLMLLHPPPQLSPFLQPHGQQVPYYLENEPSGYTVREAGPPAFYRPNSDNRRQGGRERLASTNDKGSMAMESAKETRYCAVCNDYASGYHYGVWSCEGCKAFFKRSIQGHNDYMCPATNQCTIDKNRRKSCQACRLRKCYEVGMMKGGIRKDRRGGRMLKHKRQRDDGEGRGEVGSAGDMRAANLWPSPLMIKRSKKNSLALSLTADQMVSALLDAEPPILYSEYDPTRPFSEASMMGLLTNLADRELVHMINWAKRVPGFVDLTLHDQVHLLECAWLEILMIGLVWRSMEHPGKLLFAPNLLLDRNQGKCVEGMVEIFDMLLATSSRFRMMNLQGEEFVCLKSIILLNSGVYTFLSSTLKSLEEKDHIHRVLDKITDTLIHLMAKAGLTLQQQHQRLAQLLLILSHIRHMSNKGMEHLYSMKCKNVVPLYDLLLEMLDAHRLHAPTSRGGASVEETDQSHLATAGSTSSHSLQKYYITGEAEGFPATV

Glucocorticoid receptor = molecular target: T5, Glucocorticoid receptor (Homo sapiens, UniProt P04150)
T5 sequence (P04150 whole entry): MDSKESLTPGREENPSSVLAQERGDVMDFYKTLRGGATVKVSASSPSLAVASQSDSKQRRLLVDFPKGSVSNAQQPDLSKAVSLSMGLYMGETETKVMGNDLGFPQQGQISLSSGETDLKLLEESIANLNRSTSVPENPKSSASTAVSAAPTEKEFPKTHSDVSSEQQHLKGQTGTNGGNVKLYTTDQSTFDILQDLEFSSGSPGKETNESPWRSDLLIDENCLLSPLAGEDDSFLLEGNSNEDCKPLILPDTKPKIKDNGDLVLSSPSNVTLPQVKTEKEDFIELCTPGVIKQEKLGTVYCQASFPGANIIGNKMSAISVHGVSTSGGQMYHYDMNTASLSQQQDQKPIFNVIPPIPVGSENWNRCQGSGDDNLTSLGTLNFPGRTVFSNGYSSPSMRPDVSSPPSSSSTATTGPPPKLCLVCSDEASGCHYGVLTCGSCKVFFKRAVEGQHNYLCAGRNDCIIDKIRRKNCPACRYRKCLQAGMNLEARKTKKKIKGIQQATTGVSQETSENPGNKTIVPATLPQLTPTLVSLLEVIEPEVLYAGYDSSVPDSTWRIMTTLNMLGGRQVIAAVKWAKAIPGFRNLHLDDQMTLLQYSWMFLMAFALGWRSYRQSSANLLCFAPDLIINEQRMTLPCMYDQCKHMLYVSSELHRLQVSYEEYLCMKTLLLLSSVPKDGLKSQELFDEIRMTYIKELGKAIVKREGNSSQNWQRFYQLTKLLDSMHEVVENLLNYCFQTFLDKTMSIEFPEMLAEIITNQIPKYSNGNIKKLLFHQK
Further: assay procedure not described here.

SMILES	AC50 [1]	AC50 [2]	AC50 [3]	AC50 (Thromboxane A2 receptor)	AC50 [4]	AC50 (Mu-type opioid receptor)	AC50 [5]	AC50 (Estrogen receptor)	AC50 (Glucocorticoid receptor)
CC(=O)Nc1ccc(O)cc1 [ACETAMINOPHEN]	> 30 µM	> 30 µM	> 30 µM	> 30 µM	> 30 µM	> 30 µM	> 30 µM		
CC[C@H]1OC(=O)[C@H](C)[C@@H](O[C@H]2C[C@@](C)(OC)[C@@H](O)[C@H](C)O2)[C@H](C)[C@@H](O[C@@H]2O[C@H](C)C[C@H](N(C)C)[C@H]2O)[C@](C)(O)C[C@@H](C)CN(C)[C@H](C)[C@@H](O)[C@]1(C)O [AZITHROMYCIN]	> 30 µM	> 30 µM	> 30 µM	> 30 µM	> 30 µM	> 10 µM		> 30 µM	
NCC(CC(=O)O)c1ccc(Cl)cc1 (configuration not stated) [BACLOFEN]	> 30 µM	> 30 µM	> 30 µM	> 30 µM	> 30 µM	> 30 µM	> 30 µM		> 30 µM
CCc1oc2ccccc2c1C(=O)c1cc(I)c(O)c(I)c1 [BENZIODARONE]	> 30 µM		> 30 µM	29 µM				> 30 µM	
CC(C)C[C@H]1C(=O)N2CCC[C@H]2[C@]2(O)O[C@](NC(=O)[C@@H]3C=C4c5cccc6[nH]c(Br)c(c56)C[C@H]4N(C)C3)(C(C)C)C(=O)N12 [BROMOCRIPTINE]	29.1 µM		> 30 µM	18.8 µM	1.07 µM	14 µM	> 30 µM		> 30 µM
COCc1c(C(C)C)nc(C(C)C)c(/C=C/[C@@H](O)C[C@@H](O)CC(=O)O)c1-c1ccc(F)cc1 [CERIVASTATIN]	> 30 µM	25.2 µM	> 30 µM	> 30 µM	> 30 µM		> 30 µM	23.3 µM	
Oc1c(Cl)cc(Cl)c2cccnc12 [CHLOROXINE]	> 30 µM	> 30 µM	> 30 µM	> 30 µM	> 30 µM		> 30 µM	> 30 µM	
C[N+](C)(C)CCO [CHOLINE]	> 30 µM	> 30 µM	> 30 µM	> 30 µM	> 30 µM			> 30 µM	
CN(C)[C@@H](c1cccc(O)c1)[C@H]1CCCC[C@H]1O [CIRAMADOL]	> 30 µM	> 30 µM	> 30 µM	> 30 µM	> 30 µM		9.31 µM	> 30 µM	
CN(C)CC(c1ccc(O)cc1)C1(O)CCCCC1 (configuration not stated) [DESVENLAFAXINE]	> 30 µM	> 30 µM	> 30 µM	> 30 µM	> 30 µM		> 30 µM	> 30 µM	
CN(C)CCN1C(=O)c2ccccc2N(C)c2ccccc21 [DIBENZEPIN]	2.62 µM		> 30 µM	> 30 µM	22.5 µM		> 30 µM	> 30 µM	
O=C(Cc1ccc(-c2ccccc2)cc1)Nc1ccccn1 [DIFENPIRAMIDE]	> 30 µM	> 10 µM	> 30 µM	> 30 µM	> 30 µM			> 30 µM	
N[C@H](C(=O)O)[C@H](O)c1ccc(O)c(O)c1 [DROXIDOPA]	> 30 µM		> 30 µM	> 30 µM	10.4 µM		> 30 µM	> 30 µM	
Cc1cc(C#N)cc(C)c1Oc1nc(Nc2ccc(C#N)cc2)nc(N)c1Br [ETRAVIRINE]	22.6 µM	> 3 µM	> 30 µM	> 10 µM	> 10 µM			6.28 µM	
C[N+]1(C)CCC(OC(=O)C(O)(c2ccccc2)C2CCCC2)C1 (configuration not stated) [GLYCOPYRRONIUM BROMIDE]				> 30 µM				> 30 µM	> 30 µM
N[C@@H](C(=O)N[C@@H]1C(=O)N2C(C(=O)O)=C(Cl)CC[C@H]12)c1ccccc1 [LORACARBEF ANHYDROUS]	> 30 µM	> 30 µM	> 30 µM	> 30 µM	> 30 µM			> 30 µM	
Cc1cccc(Nc2ccccc2C(=O)O)c1C [MEFENAMIC ACID]	> 30 µM	> 30 µM	> 30 µM	> 30 µM	> 30 µM	> 30 µM	> 30 µM		> 10 µM
COc1cc(NC(C)CCCN)c2ncccc2c1 (configuration not stated) [PRIMAQUINE]				> 30 µM			> 30 µM	> 30 µM	
C=C[C@H]1C[N@@]2CC[C@H]1C[C@H]2[C@H](O)c1ccnc2ccc(OC)cc12 [QUININE]	> 30 µM		> 30 µM	> 30 µM			> 30 µM	> 30 µM	
CCC(=O)NCC[C@@H]1CCc2ccc3c(c21)CCO3 [RAMELTEON]	> 30 µM	> 30 µM	> 30 µM	> 30 µM	> 30 µM			> 30 µM	
CS(=O)(=O)c1ccc(C2=C(c3ccccc3)C(=O)OC2)cc1 [ROFECOXIB]	> 30 µM	> 30 µM	> 30 µM	> 30 µM	> 30 µM	> 10 µM	> 30 µM		> 30 µM
Cc1cn([C@H]2C=C[C@@H](CO)O2)c(=O)[nH]c1=O [STAVUDINE]	> 30 µM	> 30 µM	> 30 µM	> 30 µM	> 30 µM	> 30 µM	> 30 µM		
CCCCCCOc1nsnc1C1=CCCN(C)C1 [XANOMELINE]			> 30 µM	> 30 µM	13.2 µM		> 30 µM	> 30 µM	
